Laboratory results: patent publication US20130210846A1, “USE OF NOVEL PAN-CDK INHIBITORS FOR TREATING TUMORS” (BAYER INTELLECTUAL PROPERTY GMBH, priority 2010, published 2013)

How the values were obtained:
[1] = system: NCI-H82 human small-cell lung tumor cells; assay: NCI-H82 human small-cell lung tumor model; type: in vivo, female NMRI nude mice; conditions: NCI-H82; a) 1.7 mg/kg oral 2× per day on 3 successive days, followed by 4 treatment-free days
Description: (§1) Tumor cells grown in cell culture were implanted subcutaneously in the flank of female or male NMRI nude mice. The treatment was started as soon as the tumors had grown to a size of approx. 20 mm^2 The study was ended as soon as the tumors in one of the groups reached a size of approx. 150 mm^2.
(§2) Vehicle group: treatment with solubilizer (40% PEG400/60% water)
(§3) The studies were designed for determining the initial response of the human tumor model to the treatment with the Exemplary compound 2-SI-2. Tumor growth inhibition in percent (TGI) was either calculated at the end of the studies from the tumor weights (TGITW) using the formula 100×[1−(tumor weight of the treatment group/tumor weight of the vehicle group)], or on the day the vehicle group had to be ended from the tumor areas (TGITA) using the formula 100×[1−(tumor area of the treatment group on the day of the measurement−tumor area of the treatment group prior to treatment)/(tumor area of the vehicle group on the day of the measurement−tumor area of the vehicle group prior to treatment)]. In the case of a tumor growth inhibition of more than 50%, the treatment was considered to have been effective.
Efficacy in the NCI-H82 human small-cell lung tumor model.
NCI-H82 human small-cell lung tumor cells implanted into female NMRI nude mice.
• a) 0.17 mg/ml of Example 2-SI-2 in 40% (v/v) PEG 400 in water […]

[2] = system: NCI-H69 human small-cell lung tumor cells; assay: NCI-H69 human small-cell lung tumor model; type: in vivo, female NMRI nude mice
Description: as §1, §2, §3
Efficacy in the NCI-H69 human small-cell lung tumor model.
NCI-H69 human small-cell lung tumor cells implanted into female NMRI nude mice. […]

[3] = system: MDA-MB231 human breast tumor cells; assay: MDA-MB231 human breast tumor model; type: in vivo, female NMRI nude mice
Description: as §1, §2, §3
Efficacy in the MDA-MB231 human breast tumor model MDA-MB231.
MDA-MB231 human breast tumor cells implanted into female NMRI nude mice.
• a) 0.20 mg/ml of Example 2-SI-2 in 40% (v/v) PEG 400 in water • b) 0.25 mg/ml of Example 2-SI-2 in 40% (v/v) PEG 400 in water • c) 0.15 mg/ml of Example 2-SI-2 in 40% (v/v) PEG 400 in water • d) 0.17 mg/ml of Example 2-SI-2 in 40% (v/v) PEG 400 in water
• a) 2.0 mg/kg (6.0 mg/m^2), 1× per day. • b) 2.5 mg/kg (7.5 mg/m^2), 2× per day on 2 successive days, followed by 5 treatment-free days. • c) 1.5 mg/kg (4.5 mg/m^2), 2× per day on 3 successive days, followed by 4 treatment-free days. • d) 1.7 mg/kg (5.1 mg/m^2), 2× per day on 3 successive days, followed by 4 treatment-free days.

[4] = system: A375; assay: Proliferation assay A375; type: cell-based; conditions: Homo sapiens, A-375, 96 h; A375, skin: melanoma; 4 days, crystal violet
Procedure: (§4) Cultivated human tumor cells (originally obtained from ATCC, HeLa-MaTu and HeLa-MaTu-ADR, originally obtained from Epo GmbH, Berlin, Germany) were plated at a density of 1000 to 5000 cells/measuring point, depending on the growth rate of the cell line, in a 96-well multititer plate in 200 μl of growth medium (DMEM/HAMS F12, 2 mM L-glutamine, 10% fetal calf serum). After 24 hours the cells of one plate (zero-point plate) were stained with crystal violet (see below), whereas the medium of the other plates was replaced with fresh culture medium (200 μl), to which the test substances had been added at various concentrations (0 μM, and in the range 0.01-30 μM; the final concentration of the solvent dimethyl sulfoxide was 0.5%). The cells were incubated for 4 days in the presence of the test substances. Cellular proliferation was determined by staining the cells with crystal violet: the cells were fixed by adding 20 μl/measuring point of an 11% glutaraldehyde solution for 15 min at room temperature. […] The extinction was determined photometrically at a wavelength of 595 nm. The percentage change in cell growth was calculated by standardization of the measured values to the extinction values of the zero-point plate (=0%) and the extinction of the untreated (0 μM) cells (=100%). […] The IC50 values were determined by means of a 4-parameter fit using the company's own software. […]

[5] = system: MDA-MB 231; assay: Proliferation assay MDA-MB 231; type: cell-based; conditions: Homo sapiens, 96 h; MDA-MB 231, estrogen receptor-negative mamma carcinoma; 4 days, crystal violet
Procedure: as §4

[6] = system: OVCAR-8; assay: Proliferation assay OVCAR-8; type: cell-based; conditions: Homo sapiens, 96 h; OVCAR-8, ovarial carcinoma; 4 days, crystal violet
Procedure: as §4

[7] = system: NCI-H69; assay: Proliferation assay NCI-H69; type: cell-based; conditions: Homo sapiens, 96 h; NCI-H69, small-cell bronchial carcinoma; 4 days, crystal violet
Procedure: as §4

[8] = system: MOLM-13; assay: Proliferation assay MOLM-13; type: cell-based; conditions: Homo sapiens, 96 h; MOLM-13, leukemia; 4 days, crystal violet
Procedure: as §4

Compound | TGITW (tumor growth inhibition from tumor weights) [1] [%] | TGITA (tumor growth inhibition from tumor areas, measured on the day the vehicle group was ended) ([2]; NCI-H69; a) 2.0 mg/kg oral 1× per day) [%] | TGITA (tumor growth inhibition from tumor areas) ([2]; NCI-H69; b) 2.5 mg/kg oral 2× per day on 2 successive days, followed by 5 treatment-free days) [%] | TGITA (tumor growth inhibition from tumor areas, measured on the day the vehicle group was ended) ([3]; MDA-MB231; a) 2.0 mg/kg oral 1× per day) [%] | TGITA (tumor growth inhibition from tumor areas) ([3]; MDA-MB231; b) 2.5 mg/kg oral 2× per day on 2 successive days, followed by 5 treatment-free days) [%] | TGITA (tumor growth inhibition from tumor areas) ([3]; MDA-MB231; c) 1.5 mg/kg oral 2× per day on 3 successive days, followed by 4 treatment-free days) [%] | TGITA (tumor growth inhibition from tumor areas) ([3]; MDA-MB231; d) 1.7 mg/kg oral 2× per day on 3 successive days, followed by 4 treatment-free days) [%] | IC50 [4] [nM] | IC50 [5] [nM] | IC50 [6] [nM] | IC50 [7] [nM] | IC50 [8] [nM]
C[C@@H](O)[C@@H](C)Oc1nc(Nc2ccc(S(C)(=N)=O)cc2)ncc1C(F)(F)F (mixture of isomers) [Example 2-SI-2, (RS)—S-(4-{[4-{[(1R,2R)-2-Hydroxy-1-methylpropyl]oxy}-5-(trifluoromethyl)pyrimidin-2-yl]-amino}phenyl)-S-methylsulfoximide] | 86 | 99 | 110 | 92 | 76 | 70 | 70 | – | – | – | – | –
C[C@@H](O)[C@@H](C)Oc1nc(Nc2ccc(S(C)(=N)=O)cc2)ncc1C(F)(F)F (single isomer, unassigned) [Example 2-SI-2] | – | – | – | – | – | – | – | 15 | 16 | 14 | 37 | 9
